From ChEMBL document CHEMBL2417394, “Exquisite selectivity for human toll-like receptor 8 in substituted furo[2,3-c]quinolines” (J Med Chem, 2013) come the findings set out here.

The source made the active and inactive calls. The calls are words filed in the database; no cut-off is given here.

The target of assay [1] is T1, Toll-like receptor 9 (Homo sapiens) (UniProt Q9NR96).
T1 sequence (whole entry): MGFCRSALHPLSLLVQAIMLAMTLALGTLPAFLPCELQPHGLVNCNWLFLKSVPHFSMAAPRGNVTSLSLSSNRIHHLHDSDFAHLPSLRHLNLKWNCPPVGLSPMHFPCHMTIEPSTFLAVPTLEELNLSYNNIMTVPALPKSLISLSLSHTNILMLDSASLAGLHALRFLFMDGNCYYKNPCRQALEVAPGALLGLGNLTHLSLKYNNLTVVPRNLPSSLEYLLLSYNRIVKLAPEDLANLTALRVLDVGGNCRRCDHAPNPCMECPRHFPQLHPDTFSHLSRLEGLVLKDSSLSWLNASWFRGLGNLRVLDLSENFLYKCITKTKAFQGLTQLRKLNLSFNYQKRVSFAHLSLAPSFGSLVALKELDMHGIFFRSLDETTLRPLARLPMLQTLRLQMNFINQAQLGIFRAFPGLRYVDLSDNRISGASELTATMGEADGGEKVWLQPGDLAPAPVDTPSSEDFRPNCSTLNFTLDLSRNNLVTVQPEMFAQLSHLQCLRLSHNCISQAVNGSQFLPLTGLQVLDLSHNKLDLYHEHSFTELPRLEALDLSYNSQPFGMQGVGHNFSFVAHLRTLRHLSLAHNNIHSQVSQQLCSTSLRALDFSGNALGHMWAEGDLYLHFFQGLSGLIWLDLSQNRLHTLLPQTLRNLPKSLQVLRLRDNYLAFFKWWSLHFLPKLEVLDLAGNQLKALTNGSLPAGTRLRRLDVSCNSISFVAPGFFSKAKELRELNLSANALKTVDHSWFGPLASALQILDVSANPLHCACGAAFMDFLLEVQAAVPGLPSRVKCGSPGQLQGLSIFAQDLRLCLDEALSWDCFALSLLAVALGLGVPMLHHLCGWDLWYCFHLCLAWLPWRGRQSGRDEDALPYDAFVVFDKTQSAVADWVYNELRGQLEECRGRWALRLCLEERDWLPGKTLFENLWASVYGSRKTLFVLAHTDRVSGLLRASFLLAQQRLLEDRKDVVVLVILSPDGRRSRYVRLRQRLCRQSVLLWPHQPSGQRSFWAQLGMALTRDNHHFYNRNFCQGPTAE
The assay can be described thus: Modulation of human TLR9 expressed in HEK293 cells co-transfected with MD2 and sAP assessed as induction of NF-kappaB activity by reporter gene assay. It counts as cell-based.

Assay [2] concerns the target T2, Nucleotide-binding oligomerization domain-containing protein 1 (Homo sapiens) (UniProt Q9Y239).
T2 sequence (whole entry): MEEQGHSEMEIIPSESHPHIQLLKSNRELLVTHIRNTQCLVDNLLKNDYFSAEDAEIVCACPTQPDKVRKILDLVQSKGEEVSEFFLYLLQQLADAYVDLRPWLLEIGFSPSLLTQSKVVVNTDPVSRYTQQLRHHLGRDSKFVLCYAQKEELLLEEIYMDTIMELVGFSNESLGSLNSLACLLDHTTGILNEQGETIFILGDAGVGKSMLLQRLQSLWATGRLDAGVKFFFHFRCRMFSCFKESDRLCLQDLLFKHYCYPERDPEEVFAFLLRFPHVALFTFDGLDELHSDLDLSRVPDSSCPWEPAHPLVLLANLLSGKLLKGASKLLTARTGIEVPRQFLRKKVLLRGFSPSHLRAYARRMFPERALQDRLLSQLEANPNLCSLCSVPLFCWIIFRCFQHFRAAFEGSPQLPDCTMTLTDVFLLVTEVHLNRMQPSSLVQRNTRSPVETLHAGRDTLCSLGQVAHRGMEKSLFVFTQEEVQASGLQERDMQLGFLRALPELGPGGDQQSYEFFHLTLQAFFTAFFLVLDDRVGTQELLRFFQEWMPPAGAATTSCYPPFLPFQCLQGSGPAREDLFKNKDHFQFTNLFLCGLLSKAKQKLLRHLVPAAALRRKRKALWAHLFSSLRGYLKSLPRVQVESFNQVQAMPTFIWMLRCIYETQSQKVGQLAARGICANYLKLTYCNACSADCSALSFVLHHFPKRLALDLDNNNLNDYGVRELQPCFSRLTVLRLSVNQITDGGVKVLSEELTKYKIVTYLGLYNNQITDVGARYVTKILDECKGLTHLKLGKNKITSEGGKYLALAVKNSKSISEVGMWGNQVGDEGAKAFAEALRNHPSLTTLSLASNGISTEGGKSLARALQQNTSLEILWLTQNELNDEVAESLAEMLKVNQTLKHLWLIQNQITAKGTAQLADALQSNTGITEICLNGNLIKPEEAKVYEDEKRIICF
The assay can be described thus: Modulation of NOD1 (unknown origin).

Assay [3] concerns the target Nucleotide-binding oligomerization domain-containing protein 2 (Homo sapiens) (UniProt Q9HC29). The experiment in a line: Modulation of NOD2 (unknown origin).

Chain of Nucleotide-binding oligomerization domain-containing protein 2 (Homo sapiens) (Q9HC29 whole entry, the tested form may be a part): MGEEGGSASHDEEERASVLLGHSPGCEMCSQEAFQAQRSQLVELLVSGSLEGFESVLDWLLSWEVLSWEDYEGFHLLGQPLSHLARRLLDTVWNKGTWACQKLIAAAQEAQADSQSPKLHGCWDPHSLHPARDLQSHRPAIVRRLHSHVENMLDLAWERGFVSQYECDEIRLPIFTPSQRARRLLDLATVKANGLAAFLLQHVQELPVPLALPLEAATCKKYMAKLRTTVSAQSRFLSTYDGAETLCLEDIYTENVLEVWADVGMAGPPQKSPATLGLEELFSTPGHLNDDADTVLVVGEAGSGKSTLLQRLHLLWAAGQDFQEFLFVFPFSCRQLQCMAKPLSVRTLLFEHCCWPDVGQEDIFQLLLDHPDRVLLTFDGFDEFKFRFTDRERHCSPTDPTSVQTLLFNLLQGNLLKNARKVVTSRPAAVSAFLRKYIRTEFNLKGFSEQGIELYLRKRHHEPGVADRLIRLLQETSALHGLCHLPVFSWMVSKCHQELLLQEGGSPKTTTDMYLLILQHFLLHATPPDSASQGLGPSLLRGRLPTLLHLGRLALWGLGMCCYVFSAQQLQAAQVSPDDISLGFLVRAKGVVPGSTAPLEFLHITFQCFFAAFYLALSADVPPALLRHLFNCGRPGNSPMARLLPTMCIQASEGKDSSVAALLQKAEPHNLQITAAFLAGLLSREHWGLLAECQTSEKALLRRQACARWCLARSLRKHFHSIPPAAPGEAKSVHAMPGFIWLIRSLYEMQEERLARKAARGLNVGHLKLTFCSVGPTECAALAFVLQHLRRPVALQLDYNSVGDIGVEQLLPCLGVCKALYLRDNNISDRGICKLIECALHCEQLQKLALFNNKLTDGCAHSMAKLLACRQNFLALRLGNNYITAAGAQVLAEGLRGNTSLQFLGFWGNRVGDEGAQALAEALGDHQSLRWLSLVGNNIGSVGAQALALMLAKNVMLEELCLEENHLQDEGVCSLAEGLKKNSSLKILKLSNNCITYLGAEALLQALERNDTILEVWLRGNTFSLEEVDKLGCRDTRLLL

Turning to `CCCCc1cc2c(nc(N)c3ccccc32)o1`, in assay [1], the outcome was inactive.

Regarding `NCCc1cc2c(o1)c(N)nc1ccccc12`, the result in assay [1], in assay [2] and in assay [3] was Active.
